According to ChEMBL document CHEMBL4602719, “Discovery of Potent, Selective, and Orally Bioavailable Inhibitors of USP7 with In Vivo Antitumor Activity” (J Med Chem, 2020):

Key:
[1] = target: T1, Ubiquitin carboxyl-terminal hydrolase 7 (Homo sapiens, UniProt Q93009); test: Inhibition of recombinant full length USP7 (unknown origin) using ubiquintin-rhodamine as substrate preincubated for 30 mins followed by substrate addition measured after 1 hr by fluorescence-based Envision plate reader assay
T1 sequence (Q93009 whole entry): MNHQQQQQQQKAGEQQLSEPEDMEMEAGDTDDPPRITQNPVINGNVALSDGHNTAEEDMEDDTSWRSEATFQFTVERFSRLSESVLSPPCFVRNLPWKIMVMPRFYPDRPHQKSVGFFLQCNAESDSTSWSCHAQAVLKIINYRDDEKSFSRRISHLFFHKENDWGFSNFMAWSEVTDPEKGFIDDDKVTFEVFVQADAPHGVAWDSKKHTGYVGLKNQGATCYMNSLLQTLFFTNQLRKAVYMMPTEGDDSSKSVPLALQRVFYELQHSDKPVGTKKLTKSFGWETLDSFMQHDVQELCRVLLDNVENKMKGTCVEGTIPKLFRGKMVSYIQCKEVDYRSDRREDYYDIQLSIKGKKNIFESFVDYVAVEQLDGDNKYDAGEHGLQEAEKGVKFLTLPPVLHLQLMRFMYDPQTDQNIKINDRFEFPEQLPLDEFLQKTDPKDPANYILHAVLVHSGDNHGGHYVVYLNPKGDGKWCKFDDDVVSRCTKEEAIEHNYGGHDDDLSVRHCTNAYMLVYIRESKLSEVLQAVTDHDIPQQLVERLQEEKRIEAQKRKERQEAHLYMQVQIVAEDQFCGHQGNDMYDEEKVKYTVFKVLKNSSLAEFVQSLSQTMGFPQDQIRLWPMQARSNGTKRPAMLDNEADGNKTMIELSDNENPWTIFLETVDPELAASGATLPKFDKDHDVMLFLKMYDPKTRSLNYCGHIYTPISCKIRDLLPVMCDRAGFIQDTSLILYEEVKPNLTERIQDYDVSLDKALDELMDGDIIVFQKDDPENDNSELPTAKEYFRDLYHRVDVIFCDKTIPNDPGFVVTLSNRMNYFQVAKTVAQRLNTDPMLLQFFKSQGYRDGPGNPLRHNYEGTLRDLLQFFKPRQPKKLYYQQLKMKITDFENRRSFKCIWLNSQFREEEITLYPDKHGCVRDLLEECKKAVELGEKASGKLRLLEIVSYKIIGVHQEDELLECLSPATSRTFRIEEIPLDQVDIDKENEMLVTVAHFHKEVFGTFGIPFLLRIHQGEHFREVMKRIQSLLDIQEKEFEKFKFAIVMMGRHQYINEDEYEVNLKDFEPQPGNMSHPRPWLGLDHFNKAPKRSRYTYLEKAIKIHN

[2] = target: T2, Ubiquitin carboxyl-terminal hydrolase 1 (Homo sapiens, UniProt O94782); test: Inhibition of His6-tagged human USP1 expressed in insect Sf21 cells coexpressing untagged UAF1 assessed as cleavage of Ubiquitin-Rhodamine110-glycine to Ubiquitin and Rhodamine110-glycine using Ubiquitin-Rhodamine110-glycine as substrate by fluorescence based analysis
T2 sequence (O94782 whole entry): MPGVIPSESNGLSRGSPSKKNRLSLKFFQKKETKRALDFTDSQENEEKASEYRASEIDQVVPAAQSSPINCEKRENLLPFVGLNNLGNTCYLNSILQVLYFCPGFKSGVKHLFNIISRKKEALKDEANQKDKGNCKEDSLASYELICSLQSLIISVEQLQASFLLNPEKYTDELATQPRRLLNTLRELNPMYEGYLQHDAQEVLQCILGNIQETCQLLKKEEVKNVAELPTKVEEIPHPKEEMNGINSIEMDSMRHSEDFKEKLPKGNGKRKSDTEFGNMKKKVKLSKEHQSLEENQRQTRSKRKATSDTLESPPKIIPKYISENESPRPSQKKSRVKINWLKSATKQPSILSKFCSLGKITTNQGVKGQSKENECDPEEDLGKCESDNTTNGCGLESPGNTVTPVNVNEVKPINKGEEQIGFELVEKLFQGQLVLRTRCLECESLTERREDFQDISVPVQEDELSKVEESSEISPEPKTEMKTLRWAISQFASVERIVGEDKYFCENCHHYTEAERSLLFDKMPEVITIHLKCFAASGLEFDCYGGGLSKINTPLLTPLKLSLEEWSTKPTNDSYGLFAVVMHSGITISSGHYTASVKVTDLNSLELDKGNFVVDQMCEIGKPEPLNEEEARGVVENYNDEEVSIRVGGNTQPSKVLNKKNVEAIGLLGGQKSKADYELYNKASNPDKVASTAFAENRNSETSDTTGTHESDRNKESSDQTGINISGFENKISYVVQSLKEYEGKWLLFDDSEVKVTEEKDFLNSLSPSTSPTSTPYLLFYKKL

[3] = target: T3, Ubiquitin carboxyl-terminal hydrolase 47 (Homo sapiens, UniProt Q96K76); test: Inhibition of USP47 (unknown origin) by biochemical assay
T3 sequence (Q96K76 whole entry): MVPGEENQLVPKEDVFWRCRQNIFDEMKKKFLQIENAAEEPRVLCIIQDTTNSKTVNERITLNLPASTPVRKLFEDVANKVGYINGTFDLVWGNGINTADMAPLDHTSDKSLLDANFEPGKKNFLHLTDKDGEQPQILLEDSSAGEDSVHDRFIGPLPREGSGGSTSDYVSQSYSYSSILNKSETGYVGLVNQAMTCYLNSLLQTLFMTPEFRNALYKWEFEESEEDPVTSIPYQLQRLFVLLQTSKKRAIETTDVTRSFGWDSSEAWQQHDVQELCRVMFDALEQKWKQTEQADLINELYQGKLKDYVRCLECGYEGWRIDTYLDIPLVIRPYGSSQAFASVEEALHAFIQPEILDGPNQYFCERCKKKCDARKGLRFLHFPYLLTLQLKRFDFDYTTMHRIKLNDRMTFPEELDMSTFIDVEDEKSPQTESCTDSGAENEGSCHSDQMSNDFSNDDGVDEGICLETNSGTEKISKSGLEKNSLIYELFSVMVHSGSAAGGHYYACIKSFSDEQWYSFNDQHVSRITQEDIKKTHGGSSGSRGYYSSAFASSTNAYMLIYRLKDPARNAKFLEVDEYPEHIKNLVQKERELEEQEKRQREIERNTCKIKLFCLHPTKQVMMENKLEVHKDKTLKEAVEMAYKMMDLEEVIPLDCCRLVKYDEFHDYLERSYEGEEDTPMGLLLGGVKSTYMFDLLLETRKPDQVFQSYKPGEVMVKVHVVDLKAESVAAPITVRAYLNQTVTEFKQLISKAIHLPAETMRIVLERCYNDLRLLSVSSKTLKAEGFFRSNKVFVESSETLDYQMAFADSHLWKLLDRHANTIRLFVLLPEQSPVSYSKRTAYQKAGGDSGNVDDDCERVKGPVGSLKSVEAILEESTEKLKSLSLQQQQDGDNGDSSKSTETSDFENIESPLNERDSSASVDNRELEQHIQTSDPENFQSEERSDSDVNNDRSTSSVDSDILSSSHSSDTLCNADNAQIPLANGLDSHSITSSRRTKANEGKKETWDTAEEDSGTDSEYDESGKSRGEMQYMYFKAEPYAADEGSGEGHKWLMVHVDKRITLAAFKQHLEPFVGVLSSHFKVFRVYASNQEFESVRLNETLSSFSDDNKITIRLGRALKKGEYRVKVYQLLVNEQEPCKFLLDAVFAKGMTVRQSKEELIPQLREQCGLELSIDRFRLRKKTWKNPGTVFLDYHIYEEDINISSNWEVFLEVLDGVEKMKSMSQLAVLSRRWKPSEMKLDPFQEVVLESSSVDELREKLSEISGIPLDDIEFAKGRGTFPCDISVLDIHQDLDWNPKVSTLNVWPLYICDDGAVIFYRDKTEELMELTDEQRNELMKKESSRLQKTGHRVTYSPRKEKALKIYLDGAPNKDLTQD

[4] = target: T1, Ubiquitin carboxyl-terminal hydrolase 7; test: Inhibition of USP7 in human RKO cells transfected with p53 luciferase reporter vector assessed as increase in p53-dependent luciferase activity measured after 18 hrs by BrightGlo luciferase assay; format: cell-based
[5] = Clearance in Sprague-Dawley rat at 0.5 mg/kg, iv; format: ADME, organism-based; conditions: in vivo
[6] = AUC in Sprague-Dawley rat at 2 mg/kg, po; format: ADME, organism-based; conditions: in vivo
[7] = Stability of compound in rat hepatocytes assessed as parent compound remaining incubated for 60 mins; format: ADME, cell-based, Hepatocyte; conditions: read-out: Stability
[8] = Stability of compound in human hepatocytes assessed as parent compound remaining incubated for 60 mins; format: ADME, cell-based, Hepatocyte; conditions: read-out: Stability
MM1.S = test: Cytotoxicity against human MM1S cells expressing wild type p53 assessed as reduction in cell viability measured after 5 days by CellTiter-Glo assay; format: functional; conditions: 120 h

| SMILES | IC50 [1] | IC50 [3] | EC50 [4] | further results |
| --- | --- | --- | --- | --- |
| O=C([C@H]1Cc2cc(Cl)cc(-c3ccnc4ccsc34)c2O1)N1CCNCC1 | 90 nM | > 40000 nM | – | IC50 [2]: > 40000 nM |
| Cc1cc(Cl)cc(-c2ccnc3cc(CN4C(=O)CCC4=O)sc23)c1CN1CCNCC1 | 32 nM | – | 1200 nM | – |
| Cc1cc(Cl)cc(-c2ccnc3cc(CN4C(=O)CCC4=O)sc23)c1O[C@H]1CCCNC1 | 4.6 nM | – | 180 nM | clearance [5]: 81.7 mL/min/kg; AUC [6]: 170 ng·h/mL |
| Cc1cc(Cl)cc(-c2ccnc3cc(CN4C(=O)C5CC5C4=O)sc23)c1O[C@@H]1CCNC[C@@H]1C (some centres undefined) | 1.1 nM | – | 170 nM | – |
| CC(=O)NCc1cc2nccc(-c3cc(Cl)cc4c3O[C@@H](C(=O)N3CCNCC3)C4)c2s1 | 25 nM | > 80000 nM | – | – |
| O=C([C@H]1Cc2cc(Cl)cc(-c3ccnc4cc(C(O)(CO)CCl)sc34)c2O1)N1CCNCC1 (some centres undefined) | 9 nM | > 40000 nM | – | – |
| Cc1cc(Cl)cc(-c2ccnc3cc(CN4C(=O)CCC4=O)sc23)c1O[C@H]1C[C@H](N)C1 | 3.4 nM | – | 150 nM | – |
| O=C1CCC(=O)N1Cc1cc2nccc(-c3cc(Cl)cc4c3O[C@@H](c3ocnc3CN3CCC3)C4)c2s1 | 13 nM | – | – | remaining at 1 h [7]: 2%; remaining at 1 h [8]: 14% |
| Cc1cc(Cl)cc(-c2ccnc3cc(CN4C(=O)C5C(C4=O)C5(C)C)sc23)c1CC1CCCNC1 (centres undefined) | 1.3 nM | – | 130 nM | – |
| Cc1cc(Cl)cc(-c2ccnc3cc(CN4C(=O)CCC4=O)sc23)c1CN1CCNC[C@@H]1C | 6.6 nM | – | 280 nM | – |
| Cc1cc(Cl)cc(-c2ccnc3cc(CN4C(=O)CCC4=O)sc23)c1O[C@@H]1CNC[C@@H]1F | 1.2 nM | – | 560 nM | clearance [5]: 35 mL/min/kg; AUC [6]: 130 ng·h/mL |
| Cc1cc(Cl)cc(-c2ccnc3cc(CN4C(=O)CCC4=O)sc23)c1OC1CCNCC1 | 8 nM | – | 400 nM | clearance [5]: 5.5 mL/min/kg; AUC [6]: 44 ng·h/mL |
| Cc1cc(Cl)cc(-c2ccnc3cc(CN4C(=O)C5CC5C4=O)sc23)c1C[C@@H]1CNC[C@@H](C)O1 (mixture of isomers) | 0.39 nM | – | 60 nM | CC50 (MM1.S): 120 nM |
| O=C([C@H]1Cc2cc(Cl)cc(-c3ccnc4cc(C5(O)COC5)sc34)c2O1)N1CCNCC1 | 73 nM | > 40000 nM | – | – |
| O=C1CCC(=O)N1Cc1cc2nccc(-c3cc(Cl)ccc3O[C@@H]3CNC[C@@H]3F)c2s1 | 207 nM | – | – | – |
| Cc1cc(Cl)cc(-c2ccnc3cc(CN4C(=O)CCC4=O)sc23)c1OCC1(F)CNC1 | 1.5 nM | – | 320 nM | – |
| O=C([C@H]1Cc2cc(Cl)cc(-c3ccnc4[nH]ccc34)c2O1)N1CCNCC1 | 450 nM | > 80000 nM | – | IC50 [2]: > 80000 nM |
| Cc1cc(Cl)cc(-c2ccnc3cc(CN4C(=O)C5C(C4=O)C5(C)C)sc23)c1NC1CCCNC1 (centres undefined) | 0.78 nM | – | 33 nM | – |
| Cc1cc(Cl)cc(-c2ccnc3cc(CN4C(=O)C5C(C4=O)C5(C)C)sc23)c1OC1CCCNC1 (centres undefined) | 2.4 nM | – | 250 nM | – |
| O=C([C@H]1Cc2cc(Cl)cc(-c3ccnc4cc(Cn5cnccc5=O)sc34)c2O1)N1CCNCC1 | 27 nM | > 5000 nM | – | – |
| Cc1cc(Cl)cc(-c2ccnc3cc(Cn4c(=O)ccn(CC(F)(F)F)c4=O)sc23)c1O[C@@H]1CCNC[C@@H]1C | 0.26 nM | – | 42 nM | clearance [5]: 16.7 mL/min/kg; AUC [6]: 52 ng·h/mL |
| O=C1CCCN1Cc1cc2nccc(-c3cc(Cl)cc4c3O[C@@H](C(=O)N3CCNCC3)C4)c2s1 | 26 nM | > 20000 nM | – | – |
| O=C1CCC(=O)N1Cc1cc2nccc(-c3cc(Cl)cc4c3O[C@@H](c3onc5c3CNCC5)C4)c2s1 | 0.38 nM | – | – | remaining at 1 h [7]: 4%; remaining at 1 h [8]: 26%; clearance [5]: 96.7 mL/min/kg |
| O=C(C1Cc2cc(Cl)cc(-c3ccnc4[nH]ccc34)c2O1)N1CCNCC1 (racemic) | 930 nM | > 80000 nM | – | IC50 [2]: > 80000 nM |
| O=C([C@H]1Cc2cc(Cl)cc(-c3ccnc4cc(CN5C(=O)CCC5=O)sc34)c2O1)N1CCNCC1 | 0.18 nM | > 2000 nM | – | remaining at 1 h [7]: 14%; remaining at 1 h [8]: 37%; clearance [5]: 192 mL/min/kg |
| Cc1cc(Cl)cc(-c2ccnc3cc(CN4C(=O)C5CC5C4=O)sc23)c1C[C@H]1OCCN[C@@H]1C (mixture of isomers) | 1.5 nM | – | 210 nM | CC50 (MM1.S): 310 nM |
| O=C([C@H]1Cc2cc(Cl)cc(-c3ccnc4cc(CO)sc34)c2O1)N1CCNCC1 | 43 nM | > 40000 nM | – | IC50 [2]: > 40000 nM |
| Cc1cc2nccc(-c3cc(Cl)cc4c3O[C@@H](C(=O)N3CCNCC3)C4)c2s1 | 130 nM | > 80000 nM | – | IC50 [2]: > 80000 nM |
| Cc1cc(Cl)cc(-c2ccnc3cc(CN4C(=O)CCC4=O)sc23)c1O[C@@H]1CCNC[C@@H]1C | 2.1 nM | – | 150 nM | clearance [5]: 1.17 mL/min/kg; AUC [6]: 860 ng·h/mL |
| Cn1nc2c(c1[C@H]1Cc3cc(Cl)cc(-c4ccnc5cc(CN6C(=O)CCC6=O)sc45)c3O1)CNCC2 | 1.1 nM | – | – | remaining at 1 h [7]: 42%; remaining at 1 h [8]: 63%; clearance [5]: 78.3 mL/min/kg |
